According to patent publication US4250170A, “Antibacterial agents Bu-2349A and B and method of using same” (Bristol-Myers Company, priority 1979, dated 1981):
≈ marks a conversion by molar mass, not a printed value.

Assays:
[1] = tested on: Serratia marcescens (Sm-2); assay: MIC, two-fold agar dilution; type: cell-based; details: 18 h, Table 3, Mueller-Hinton agar, 10^-4 dilution
[2] = tested on: Enterobacter cloacae (El-35), AAC(3)-3; assay: MIC, two-fold agar dilution; type: cell-based; details: 18 h, Table 3, Mueller-Hinton agar, 10^-4 dilution, enzyme AAC(3)-3
[3] = tested on: Klebsiella pneumoniae (Kp-33), AAC(3)-3; assay: MIC, two-fold agar dilution; type: cell-based; details: 18 h, Table 3, Mueller-Hinton agar, 10^-4 dilution, enzyme AAC(3)-3
[4] = tested on: Mycobacterium ranae ATCC 110 (Mr-1); assay: MIC, two-fold agar dilution; type: cell-based; details: ATCC110, 18 h, Table 3, Mueller-Hinton agar, 10^-4 dilution
[5] = tested on: Mycobacterium phlei D88 (Mp-1); assay: MIC, two-fold agar dilution; type: cell-based; details: Mycolicibacterium phlei, 18 h; Table 3; Mueller-Hinton agar, 10^-4 dilution
[6] = tested on: Escherichia coli NIHJ (Ec-1); assay: MIC, two-fold agar dilution; type: cell-based; details: 18 h, Table 3, Mueller-Hinton agar, 10^-4 dilution
[7] = tested on: Streptococcus pneumoniae (Dp-4); assay: MIC, two-fold agar dilution; type: cell-based; details: 18 h, Table 3, GC agar, 10^-2 dilution
[8] = tested on: Pseudomonas aeruginosa (Pa-3); assay: MIC, two-fold agar dilution; type: cell-based; details: 18 h, Table 3, Mueller-Hinton agar, 10^-4 dilution
Method: (§1) The minimum inhibitory concentrations (MIC) of Bu-2349A and B were determined against a wide variety of bacteria by the two-fold agar dilution method. Mueller-Hinton agar medium was generally used for the determination of bacterial MIC except for species of Streptococcus, Neisseria and Hemophilus for which Gonococcus agar medium (GC agar, Nissui Co., Tokyo) was used. Gifu anaerobe agar medium (GAM agar, Eiken Co., Tokyo) was used for anaerobic bacteria. The MIC's were determined after overnight incubation at 37° C. with an initial inoculum equivalent to a 10^-4 dilution of an 18-hour culture for the aerobic and anaerobic bacteria, except for Streptococcus, Neisseria and Hemophilus for which a 10^-2 dilution was used.
(§2) The influence of inoculum size on MIC was tested on Mueller-Hinton agar using an inoculum of […], 10^-2 or 10^-4 dilution of the overnight culture of test organisms.
(§3) The effect of media pH on the MIC's of Bu-2349A was determined at three pH levels (6, 7 and 8) using Mueller-Hinton agar.
(§4) The media effect on the MIC's of Bu-2349A was tested using four kinds of assay media: Mueller-Hinton agar (MHA), nutrient agar (NA), heart infusion agar (HIA) and brain heart infusion agar (BHIA). The pH was adjusted at 7 and a 10^-4 dilution of overnight culture was used for the inoculum.

Proteus morganii (Pg-1) = assay: MIC, two-fold agar dilution; type: cell-based; details: Morganella morganii, 18 h, Table 3; Mueller-Hinton agar, 10^-4 dilution
Method: as §1, §2, §3, §4

[9] = tested on: Bacillus subtilis PCI 219 (Bs-1); assay: MIC, two-fold agar dilution; type: cell-based; details: 18 h, Table 3, Mueller-Hinton agar, 10^-4 dilution
Method: as §1, §2, §3, §4

[10] = tested on: Klebsiella pneumoniae (Kp-2); assay: MIC, two-fold agar dilution; type: cell-based; details: 18 h, Table 3, Mueller-Hinton agar, 10^-4 dilution, read-out: MIC
Method: as §1, §2, §3, §4

[11] = tested on: Escherichia coli ML-1630 (Ec-5), APH(3')-1; assay: MIC, two-fold agar dilution; type: cell-based; details: 18 h, Table 3, Mueller-Hinton agar, 10^-4 dilution, enzyme APH(3')-1
Method: as §1, §2, §3, §4

[12] = tested on: Staphylococcus aureus 209P (Sa-1); assay: MIC, two-fold agar dilution; type: cell-based; details: 18 h, Table 3, Mueller-Hinton agar, 10^-4 dilution
Method: as §1, §2, §3, §4

Proteus mirabilis (Pm-1) = assay: MIC, two-fold agar dilution; type: cell-based; details: Proteus mirabilis, 18 h, Table 3; Mueller-Hinton agar, 10^-4 dilution; read-out: MIC
Method: as §1, §2, §3, §4

[13] = tested on: Escherichia coli Juhl (Ec-3); assay: MIC, two-fold agar dilution; type: cell-based; details: 18 h, Table 3, Mueller-Hinton agar, 10^-4 dilution
Method: as §1, §2, §3, §4

[14] = tested on: gram-positive and gram-negative bacteria; assay: in vitro antibacterial activity, overall statements; type: cell-based
Method: as §1, §2, §3, §4

[15] = tested on: Staphylococcus aureus (Sa-77), ANT(4'); assay: MIC, two-fold agar dilution; type: cell-based; details: 18 h
[16] = tested on: Escherichia coli (Ec-72), ANT(2"); assay: MIC, two-fold agar dilution; type: cell-based; details: 18 h, Table 3, Mueller-Hinton agar, 10^-4 dilution, enzyme ANT(2")
[17] = tested on: Neisseria gonorrhoeae (Ng-1); assay: MIC, two-fold agar dilution; type: cell-based; details: 18 h, Table 3, GC agar, 10^-2 dilution
solubility = type: physicochemical; details: hydrochloride salt
Mycobacterium 607 (M6-1) = assay: MIC, two-fold agar dilution; type: cell-based; details: 18 h, Table 3, Mueller-Hinton agar, 10^-4 dilution
[18] = tested on: Escherichia coli (Ec-9), AAC(6')-1; assay: MIC, two-fold agar dilution; type: cell-based; details: 18 h, Table 3, Mueller-Hinton agar, 10^-4 dilution, enzyme AAC(6')-1
[19] = tested on: Neisseria meningitidis (Nm-1); assay: MIC, two-fold agar dilution; type: cell-based; details: 18 h, Table 3, GC agar, 10^-2 dilution
[20] = tested on: Streptococcus viridans (Sv-1); assay: MIC, two-fold agar dilution; type: cell-based; details: 18 h, Table 3, GC agar, 10^-2 dilution
[21] = tested on: Escherichia coli (Ec-49), APH(3')-2; assay: MIC, two-fold agar dilution; type: cell-based; details: 18 h, Table 3, Mueller-Hinton agar, 10^-4 dilution, enzyme APH(3')-2
Proteus rettgeri (Pr-2) = assay: MIC, two-fold agar dilution; type: cell-based; details: Providencia rettgeri, 18 h; Table 3; Mueller-Hinton agar, 10^-4 dilution
[22] = tested on: Proteus stuartii (Ps-2), AAC(2'); assay: MIC, two-fold agar dilution; type: cell-based; details: 18 h; Table 3; Mueller-Hinton agar, 10^-4 dilution; enzyme AAC(2')
[23] = tested on: Staphylococcus epidermidis (Si-2), ANT (4'); assay: MIC, two-fold agar dilution; type: cell-based; details: 18 h, Table 3, Mueller-Hinton agar, 10^-4 dilution, enzyme ANT (4')
Proteus vulgaris (Pv-1) = assay: MIC, two-fold agar dilution; type: cell-based; details: 18 h, Table 3, Mueller-Hinton agar, 10^-4 dilution
[24] = tested on: Escherichia coli (Ec-62), AAC(3)- 1; assay: MIC, two-fold agar dilution; type: cell-based; details: 18 h, Table 3, Mueller-Hinton agar, 10^-4 dilution, enzyme AAC(3)- 1
[25] = tested on: Staphylococcus aureus Terajima (Sa-33); assay: MIC, two-fold agar dilution; type: cell-based; details: 18 h, Table 3, Mueller-Hinton agar, 10^-4 dilution
[26] = tested on: Streptococcus pyogenes (Sp-3); assay: MIC, two-fold agar dilution; type: cell-based; details: 18 h, Table 3, GC agar, 10^-2 dilution
[27] = tested on: Staphylococcus aureus Smith (Sa-2); assay: MIC, two-fold agar dilution; type: cell-based; details: 18 h, Table 3, Mueller-Hinton agar, 10^-4 dilution
[28] = tested on: Hemophylus influenzae (He-2); assay: MIC, two-fold agar dilution; type: cell-based; details: 18 h; Table 3; GC agar, 10^-2 dilution

C=C1OC(OC2C(CO)OC(Oc3ccc(C(=O)NCCCNCCCCN)cc3)C2O)C(O)C(OC2OC(CO)C(OC3OC(C)C(N)C(O)C3NC(=O)C(C)N)C(O)C2O)C1O (stereo not shown) [Bu-2349B]
MIC [1]: 50 µg/mL (≈ 54.4 µM)
MIC [2]: 12.5 µg/mL (≈ 13.6 µM)
MIC [3]: 12.5 µg/mL (≈ 13.6 µM)
MIC [4]: 25 µg/mL (≈ 27.2 µM)
MIC [5]: 25 µg/mL (≈ 27.2 µM)
MIC [6]: 3.1 µg/mL (≈ 3.37 µM)
MIC [7]: > 100 µg/mL
MIC [8]: 100 µg/mL (≈ 109 µM)
MIC (Proteus morganii (Pg-1)): 100 µg/mL (≈ 109 µM)
MIC [9]: 25 µg/mL (≈ 27.2 µM)
MIC [10]: 12.5 µg/mL (≈ 13.6 µM)
MIC [11]: 6.3 µg/mL (≈ 6.86 µM)
MIC [12]: 12.5 µg/mL (≈ 13.6 µM)
MIC (Proteus mirabilis (Pm-1)): 25 µg/mL (≈ 27.2 µM)
MIC [13]: 6.3 µg/mL (≈ 6.86 µM)
inhibitory activity both in vitro and in vivo ([14]; gram-positive and gram-negative bacteria, including aminoglycoside-resistant bacteria, summary statement): marked inhibitory activity
antibacterial activity ([14]; including bacteria which produce aminoglycoside-modifying enzymes): active
MIC [15]: 50 µg/mL (≈ 54.4 µM)
MIC [16]: 6.3 µg/mL (≈ 6.86 µM)
MIC [17]: > 100 µg/mL
solubility in methanol, ethanol, dimethylsulfoxide and dimethylformamide (solubility; methanol, ethanol, dimethylsulfoxide and dimethylformamide): slightly soluble
solubility in other common organic solvents (solubility; other common organic solvents): practically insoluble
solubility in water (solubility; water): soluble
MIC (Mycobacterium 607 (M6-1)): 12.5 µg/mL (≈ 13.6 µM)
MIC [18]: 0.8 µg/mL (≈ 0.871 µM)
MIC [19]: > 100 µg/mL
MIC [20]: > 100 µg/mL
MIC [21]: 3.1 µg/mL (≈ 3.37 µM)
MIC (Proteus rettgeri (Pr-2)): 3.1 µg/mL (≈ 3.37 µM)
MIC [22]: 1.6 µg/mL (≈ 1.74 µM)
MIC [23]: 25 µg/mL (≈ 27.2 µM)
MIC (Proteus vulgaris (Pv-1)): 6.3 µg/mL (≈ 6.86 µM)
MIC [24]: 12.5 µg/mL (≈ 13.6 µM)
MIC [25]: 6.3 µg/mL (≈ 6.86 µM)
MIC [26]: > 100 µg/mL
MIC [27]: 12.5 µg/mL (≈ 13.6 µM)
MIC [28]: > 100 µg/mL
